Measurements: patent publication US4282215A, “Analgesic mixture of nalbuphine and acetylsalicylic acid, derivative or salt thereof” (E. I. Du Pont de Nemours and Company, priority 1980, dated 1981)
Where a name gives a salt, the structure may show the parent alone.

Assays:
[1] = test system: phenyl-p-benzoquinone induced writhing in mice; assay: mouse antiphenylquinone writhing test at 20 minutes, oral nalbuphine.HCl / aspirin suspension (Method 1); type: in vivo, mouse (Male CF1)
Method: (§1) Male CF1 mice obtained from Charles River Breeding Laboratories, fasted for 16-22 hours, and weighing 18-22 g at the time of testing are used throughout. All mice are dosed sequentially by the oral route with suspensions of acetylsalicylic acid and/or of nalbuphine solutions (Method 1) or of calcium acetylsalicylate (calcium aspirin) and/or of nalbuphine solutions (Method 2). In each case the aspirin component is calculated as the equivalent free acid content, and nalbuphine is calculated as the hydrochloride salt. A dosing volume of 10 ml/kg is used for each sequential solution or suspension. All doses are coded and the test is performed under a code not known to the observer.
A stock suspension of aspirin is prepared by mixing 2.016 gm aspirin with 40 ml of an aqueous vehicle containing 2% by volume of Tween 80®, a pharmacological dispersant manufactured by Fisher Scientific Company and containing 100% polysorbate 80, and 1% by weight of Methocel® MC powder, a pharmacological suspending agent manufactured by DOW Chemical Company and containing 100% methylcellulose, in distilled water. The mixture is sonicated at 150 watts for 10-15 seconds with an ultrasound system, then shaken for 1 hour at 280 oscillations/minute with 15-20 gm of glass beads. The resultant suspension contains 50.4 mg/ml of aspirin; all dosing suspensions are prepared by dilution of the stock suspension with the Methocel®/Tween 80® vehicle; the vehicle control is Methocel®/Tween 80®. All suspensions are used within two hours of preparation, then discarded.
Stock solutions of nalbuphine.HCl are prepared by dissolving dry nalbuphine hydrochloride powder with distilled water. All dosing solutions are prepared by dilution of the stock solutions with distilled water; the vehicle control is distilled water.
(§2) A standard procedure for detecting and comparing the analgetic activity of different classes of analgesic drugs for which there is a good correlation with human analgetic activity is the prevention of phenyl-p-benzoquinone induced writhing in mice [H. Blumberg et al., Proc. Soc. Exp. Biol. Med., 118, 763-766 (1965)].
(§3) Mice, intubated with various doses of nalbuphine.HCl, aspirin suspensions (Method 1), calcium aspirin solution (Method 2), or immediately sequential doses of nalbuphine.HCl and of the aspirin preparations as defined further, or of the respective vehicles, are injected intraperitoneally with a standard challenge dose of phenyl-p-benzoquinone 5 min. prior to a designated observation period. The phenyl-p-benzoquinone is prepared as a 0.1 mg/ml solution in 5% by volume of ethanol in water; the writhing dose is 1.25 mg/kg injected at a volume of 0.25 ml/20 g. For scoring purposes a "writhe" is indicated by whole body stretching or contraction of the abdomen during a 10 min. observation period beginning 5 min. after receiving the phenyl-p-benzoquinone dose. Each mouse is used only once, then discarded.
(§4) All ED50 values and their 95% confidence limits are determined numerically by the methods of Thompson [W. F. Thompson, Bacteriological Rev., 11, 115-145 (1947)], Litchfield and Wilcoxon [J. T. Litchfield, Jr. and F. Wilcoxon, J. Pharm. Exp. Ther., 96, 99-113 (1949)], or Finney [D. J. Finney, "Probit Analysis," third edition, Cambridge University Press, Cambridge, England, (1971)].
Rev., 9, 237-242 (1957)] in FIG. 1. […] In the isobolographic figures, the analgetic effects of nalbuphine alone are presented on the Y axis and of aspirin alone (or calcium aspirin, expressed as aspirin equivalent dosages) on the X axis. The dotted lines radiating from the origin represent the fixed dosage ratios of nalbuphine.HCl:aspirin in the ranges of 1:2.44 to 1:60.9 and 1:1.76 to 1:61.7 for FIGS. 1 and 2, respectively. […] The arrows extending above and below each ED50 point represent the 95% confidence limits of the ED50's. […]

[2] = test system: phenyl-p-benzoquinone induced writhing in mice; assay: mouse antiphenylquinone writhing test at 40 minutes, oral nalbuphine.HCl / calcium aspirin (Method 2); type: in vivo, mouse (Male CF1)
Method: as §1
A stock solution of calcium aspirin is prepared by mixing 4.032 gm of aspirin and 1.120 gm of precipitated calcium carbonate with 50 ml of distilled water at 40°-50° C. until the solids are completely dissolved, then diluting to 60 ml with distilled water at ambient temperature to obtain a solution containing 67.2 mg/ml of aspirin equivalent. All dosing solutions are prepared by dilution of the stock solution with distilled water; the vehicle control is distilled water. All solutions are used within two hours of preparation, then discarded.
Stock solutions of nalbuphine.HCl are prepared as described for Method 1.
as §2, §3, §4
Rev., 9, 237-242 (1957)] in FIG. 1. […] In the isobolographic figures, the analgetic effects of nalbuphine alone are presented on the Y axis and of aspirin alone (or calcium aspirin, expressed as aspirin equivalent dosages) on the X axis. The dotted lines radiating from the origin represent the fixed dosage ratios of nalbuphine.HCl:aspirin in the ranges of 1:2.44 to 1:60.9 and 1:1.76 to 1:61.7 for FIGS. 1 and 2, respectively. […] The arrows extending above and below each ED50 point represent the 95% confidence limits of the ED50's.
The solid line connecting the ED50 dosages of nalbuphine (alone) and aspirin (alone) represents the "ED50 addition line," which indicates the expected location of the ED50's for nalbuphine and aspirin combinations if simple additivity were to describe their combined effects. The 95% confidence range for the ED50 addition line is shown by the area between the broken lines above and below the ED50 addition line. […]

CC(=O)Oc1ccccc1C(=O)O [Aspirin, acetylsalicylic acid]
ED50 at 20 MIN., Aspirin (component) ([1]; N = 24 mice/dose): 206 mg/kg | % MICE BLOCKED ([1]; nalbuphine.HCl 0, aspirin 63 mg/kg): 8.3% | % MICE BLOCKED ([1]; nalbuphine.HCl 0, aspirin 126 mg/kg): 37.5% | % MICE BLOCKED ([1]; nalbuphine.HCl 0, aspirin 252 mg/kg): 58.3% | % MICE BLOCKED ([1]; nalbuphine.HCl 0, aspirin 504 mg/kg): 79.2%

Oc1ccc2c3c1O[C@H]1[C@@H](O)CC[C@@]4(O)[C@@H](C2)N(CC2CCC2)CC[C@]314 [Nalbuphine . HCl, (-)17-(cyclobutylmethyl)-4,5α-epoxymorphinan-3,6α,14-triol]
ED50 at 40 MIN., Nalbuphine . HCl (component) ([2]; N = 54 mice/dose): 42.6 mg/kg | % MICE BLOCKED ([2]; nalbuphine.HCl 5.45 mg/kg alone): 13.0% | % MICE BLOCKED ([2]; nalbuphine.HCl 10.9 mg/kg, aspirin 0): 16.7% | % MICE BLOCKED ([2]; nalbuphine.HCl 21.8 mg/kg, aspirin 0): 27.8% | % MICE BLOCKED ([2]; nalbuphine.HCl 43.6 mg/kg, aspirin 0): 50.0% | % MICE BLOCKED ([2]; nalbuphine.HCl 87.2 mg/kg, aspirin 0): 74.1% | ED50 at 20 MIN., Nalbuphine . HCl (component) ([1]; N = 24 mice/dose): 26.1 mg/kg | % MICE BLOCKED ([1]; nalbuphine.HCl 5.18 mg/kg, aspirin 0): 0% | % MICE BLOCKED ([1]; nalbuphine.HCl 10.4 mg/kg, aspirin 0): 16.7% | % MICE BLOCKED ([1]; nalbuphine.HCl 20.7 mg/kg, aspirin 0): 50.0% | % MICE BLOCKED ([1]; nalbuphine.HCl 41.4 mg/kg, aspirin 0): 62.5%

CC(=O)Oc1ccccc1C(=O)O [calcium aspirin, calcium acetylsalicylate]
ED50 at 40 MIN., Aspirin (component; calcium aspirin as equivalent free aspirin) ([2]; N = 54 mice/dose): 171 mg/kg | % MICE BLOCKED ([2]; nalbuphine.HCl 0, aspirin equiv. 48 mg/kg): 7.4% | % MICE BLOCKED ([2]; nalbuphine.HCl 0, aspirin equiv. 96 mg/kg): 13.0% | % MICE BLOCKED ([2]; nalbuphine.HCl 0, aspirin equiv. 192 mg/kg): 63.0% | % MICE BLOCKED ([2]; nalbuphine.HCl 0, aspirin equiv. 384 mg/kg): 87.0%
